In patent US8058242B2, “Chimeric proteins with natriuretic activity” (The University of Queensland, priority 2004, dated 2011):
Positions of bridges follow the written chain, without caps; N, C: chain ends. Residues, ends and D or L forms follow the SMILES beside them.

What was measured:
[1] = target: T1, NPR-A signaling in HeLa cells (Homo sapiens, UniProt P16066); test: cGMP AlphaScreen assay in HeLa cells (Examples 14, 15); assay type: cell-based; conditions: 30 minutes at 37° C.
T1 construct: Cyclic GMP (cGMP) elevation in HeLa cells in response to Natriuretic Peptide stimulation; endogenous in cells; host or cells: HeLa cells
T1 sequence (P16066 33-1061): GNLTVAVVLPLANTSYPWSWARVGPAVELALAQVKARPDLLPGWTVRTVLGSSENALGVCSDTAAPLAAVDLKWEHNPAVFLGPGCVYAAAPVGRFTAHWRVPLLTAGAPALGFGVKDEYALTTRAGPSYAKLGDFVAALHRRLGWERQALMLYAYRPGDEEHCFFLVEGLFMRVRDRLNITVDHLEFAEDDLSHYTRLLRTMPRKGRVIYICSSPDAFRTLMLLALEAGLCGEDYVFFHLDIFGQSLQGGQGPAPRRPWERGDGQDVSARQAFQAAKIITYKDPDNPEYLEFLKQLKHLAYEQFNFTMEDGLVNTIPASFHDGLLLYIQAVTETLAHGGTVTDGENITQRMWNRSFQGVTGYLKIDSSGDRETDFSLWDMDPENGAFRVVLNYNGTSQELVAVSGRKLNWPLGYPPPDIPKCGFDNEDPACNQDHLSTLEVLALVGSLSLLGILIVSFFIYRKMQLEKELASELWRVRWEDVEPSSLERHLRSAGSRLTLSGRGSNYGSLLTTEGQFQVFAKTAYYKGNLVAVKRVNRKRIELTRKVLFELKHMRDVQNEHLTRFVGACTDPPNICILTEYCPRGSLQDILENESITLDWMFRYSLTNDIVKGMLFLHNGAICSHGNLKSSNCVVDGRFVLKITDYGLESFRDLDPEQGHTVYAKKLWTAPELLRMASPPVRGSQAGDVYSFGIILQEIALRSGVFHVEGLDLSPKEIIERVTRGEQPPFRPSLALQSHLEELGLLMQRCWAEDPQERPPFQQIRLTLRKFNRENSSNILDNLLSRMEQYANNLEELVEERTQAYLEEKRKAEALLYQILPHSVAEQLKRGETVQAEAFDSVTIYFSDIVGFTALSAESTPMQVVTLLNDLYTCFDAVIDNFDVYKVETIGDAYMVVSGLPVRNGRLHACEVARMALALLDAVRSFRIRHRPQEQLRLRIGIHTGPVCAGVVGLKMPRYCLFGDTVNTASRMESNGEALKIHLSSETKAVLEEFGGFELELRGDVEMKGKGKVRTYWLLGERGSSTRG
Method: HeLa cells were maintained in RPMI cell culture medium (Gihco Invitrogen, Mt Waverley, Australia) supplemented with 10% Foetal Bovine Serum (Cambrex Bio Science, Rockland, USA). Upon reaching confluence, cells were sub-cultured such that they would be 70-90% confluent at time of assay.
Cyclic GMP (cGMP) elevation in HeLa cells in response to Natriuretic Peptide stimulation was performed using a cGMP AlphaScreen kit (PerkinElmer, Boston, USA), as follows for normal experiments: Cells were detached, pelleted to remove growth medium, and resuspended in Stimulation Buffer (Hank's Balanced Salt Solution, 0.1% Bovine Serum Albumin [BSA] (Sigma-Aldrich, Castle Hill, Australia), 1 mM 3-Isobutyl-1-methylxanthine [IBMX] (Sigma-Aldrich, Castle Hill, Australia)) and diluted to 6×10^6 cells per mL (30 000 cells per 5 μL). 5 μL of cells were added to wells of white 384-well OptiPlates (PerkinElmer, Boston, USA), and stimulated with increasing concentrations of peptide for 30 minutes at 37° C. Cells were then lysed with 10 μL Lysis buffer (dH2O, 0.3% Tween-20 (Sigma-Aldrich, Castle Hill, Australia), 5 mM HEPES (JRH Biosciences, Kansas, USA) and 0.1% BSA) and 5 μL acceptor bead mix (10 μL per mL acceptor beads and 1/3000 anti-cGMP antibody (BioVision, Mountain View, USA) in lysis buffer) added per well in the dark. Plates were incubated in the dark at room temperature for 30 minutes, then 5 μL donor bead mix (10 μL per ML donor beads and 0.3 nM biotinylated cGMP in lysis buffer) was added per well in the dark and the plate incubated overnight at room temperature. Signal was read using an EnVision plate reader (PerkinElmer, Boston, USA) and data analysed using Prism software. The cGMP standard curve was performed as per manufacturer's instructions.
To examine whether TNPc and synthetic analogs produced in the inventors' laboratory could stimulate NPR-A signaling, cGMP elevations in HeLa cells in response to these peptides were measured, as described above.

[2] = tested on: conscious normotensive rabbits; test: Blood pressure and heart rate in conscious normotensive rabbits, intravenous bolus of TDT analogs (Example 17); conditions: i.v. bolus 0.24 mg/kg; for MAP, mean difference from control: at MAP minimum
[3] = −Log10EC50 (pEC50) ± Standard Error, cGMP accumulation in HeLa cells

SMILES | EC50 ([1]; EC50, cGMP accumulation in HeLa cells) [nM] | EC50 [1, 3] [nM] | HR, mean difference from control [2] | time after administration at which the MAP effect occurred, on average [2] [min] | MAP, mean difference from control [2] [mmHg]
CC[C@H](C)[C@H](NC(=O)[C@H](CCCCN)NC(=O)[C@H](CO)NC(=O)[C@H](CC(=O)O)NC(=O)[C@@H](N)CO)C(=O)NCC(=O)N[C@@H](CC(N)=O)C(=O)NCC(=O)N[C@H]1CSSC[C@@H](C(=O)N[C@@H](CC(N)=O)C(=O)N[C@@H](CCCNC(=N)N)C(=O)N[C@H](C(=O)N[C@@H](CCSC)C(=O)N[C@@H](CCC(N)=O)C(=O)N[C@@H](CC(N)=O)C(=O)N2CCC[C@H]2C(=O)N2CCC[C@H]2C(=O)N[C@@H](CCCCN)C(=O)N[C@@H](CCCCN)C(=O)N[C@@H](Cc2ccccc2)C(=O)N[C@@H](CO)C(=O)NCC(=O)N[C@@H](CCC(=O)O)C(=O)O)[C@@H](C)CC)NC(=O)CNC(=O)[C@H](CC(C)C)NC(=O)[C@H](CC(N)=O)NC(=O)[C@H](CO)NC(=O)[C@H](C)NC(=O)[C@H](Cc2c[nH]cn2)NC(=O)[C@H](CC(N)=O)NC(=O)[C@H]([C@@H](C)CC)NC(=O)[C@H](CCCNC(=N)N)NC(=O)[C@H](CC(=O)O)NC(=O)[C@H]([C@@H](C)CC)NC(=O)[C@H](CCCCN)NC(=O)[C@H](Cc2c[nH]cn2)NC(=O)CNC(=O)[C@H](Cc2ccccc2)NC1=O [V20A-TDT] (H-SDSKIGNGCFGHKIDRINHASNLGCNRIMQNPPKKFSGE-OH; disulfide 9-25) | 455 | 382 | – | – | –
CC[C@H](C)[C@H](NC(=O)[C@H](CCCCN)NC(=O)[C@H](CO)NC(=O)[C@H](CC(=O)O)NC(=O)[C@@H](N)CO)C(=O)NCC(=O)N[C@@H](CC(N)=O)C(=O)NCC(=O)N[C@H]1CSSC[C@@H](C(=O)N[C@@H](CC(N)=O)C(=O)N[C@@H](CCCNC(=N)N)C(=O)N[C@H](C(=O)N[C@@H](CCSC)C(=O)N[C@@H](CCC(N)=O)C(=O)N[C@@H](CC(N)=O)C(=O)N2CCC[C@H]2C(=O)N2CCC[C@H]2C(=O)N[C@@H](CCCCN)C(=O)N[C@@H](CCCCN)C(=O)N[C@@H](Cc2ccccc2)C(=O)N[C@@H](CO)C(=O)NCC(=O)N[C@@H](CCC(=O)O)C(=O)O)[C@@H](C)CC)NC(=O)CNC(=O)[C@H](CC(C)C)NC(=O)[C@H](CC(N)=O)NC(=O)[C@H](CO)NC(=O)[C@H](C(C)C)NC(=O)[C@H](Cc2c[nH]cn2)NC(=O)[C@H](CC(N)=O)NC(=O)[C@H]([C@@H](C)CC)NC(=O)[C@H](CCCNC(=N)N)NC(=O)[C@H](CC(=O)O)NC(=O)[C@H]([C@@H](C)CC)NC(=O)[C@H](CCCCN)NC(=O)[C@H](CCCNC(=N)N)NC(=O)CNC(=O)[C@H](Cc2ccccc2)NC1=O [H12R-TDT] | – | – | −7±5 b/min | 97 | −9.2±2.2
CC[C@H](C)[C@H](NC(=O)[C@H](CCCCN)NC(=O)[C@H](CO)NC(=O)[C@H](CC(=O)O)NC(=O)[C@@H](N)CO)C(=O)NCC(=O)N[C@@H](CC(N)=O)C(=O)NCC(=O)N[C@H]1CSSC[C@@H](C(=O)N[C@@H](CC(N)=O)C(=O)N[C@@H](CCCNC(=N)N)C(=O)N[C@H](C(=O)N[C@@H](CCSC)C(=O)N[C@@H](CCC(N)=O)C(=O)N[C@@H](CC(N)=O)C(=O)N2CCC[C@H]2C(=O)N2CCC[C@H]2C(=O)N[C@@H](CCCCN)C(=O)N[C@@H](CCCCN)C(=O)N[C@@H](Cc2ccccc2)C(=O)N[C@@H](CO)C(=O)NCC(=O)N[C@@H](CCC(=O)O)C(=O)O)[C@@H](C)CC)NC(=O)CNC(=O)[C@H](CC(C)C)NC(=O)CNC(=O)[C@H](CO)NC(=O)[C@H](C(C)C)NC(=O)[C@H](Cc2c[nH]cn2)NC(=O)[C@H](CC(N)=O)NC(=O)[C@H]([C@@H](C)CC)NC(=O)[C@H](CCCNC(=N)N)NC(=O)[C@H](CC(=O)O)NC(=O)[C@H]([C@@H](C)CC)NC(=O)[C@H](CCCCN)NC(=O)[C@H](Cc2c[nH]cn2)NC(=O)CNC(=O)[C@H](Cc2ccccc2)NC1=O [N22G-TDT] (H-SDSKIGNGCFGHKIDRINHVSGLGCNRIMQNPPKKFSGE-OH; disulfide 9-25) | – | 3.14 | little effect on HR | 140 | −17.4±7.6
